Results published in PMC7349657, “Efficient Targeted Degradation via Reversible and Irreversible Covalent PROTACs” (Journal of the American Chemical Society, 2020).

target: BTK (Homo sapiens, UniProt Q06187); assay: Time course of BTK degradation in Ramos and Mino cells; assay type: cell-based; set-up: endogenous in cells; host or cells: Mino (ATCC CRL-3000), Ramos (ATCC CRL-1596), K562 (NCI-60); settings: 100 nM PROTAC, Ramos cells (RC-3: Mino cells)
Description: We followed the rate of BTK degradation facilitated by this compound series via a time course experiment in Ramos and Mino cells (Supporting Figure 3). The rates of degradation correlated well with the DC50 values observed after 24 h, with NC-1, IR-1, IR-2, and RC-3 degrading BTK within 2–4 h, while RC-2 and RC-1 required 6–24 h to reach maximum degradation.
Ramos (ATCC, CRL-1596), Mino (ATCC, CRL-3000), or K562 (NCI-60) cell lines were counted and diluted to 10^6 cell/mL, using 1 mL per well in a 24-well plate, and U2OS (ATCC HTB-96) cells overexpressing human BTK WT or C481S mutant were grown using 2 mL in a six-well plate (see Supporting Information). Cells were incubated with 1% DMSO or compound in indicated concentrations for 24 h unless indicated differently, or cells were left untreated. Lysates were prepared as previously described,[29] and samples were measured for total protein quantification by bicinchoninic acid (BCA) assay (#23225 ThermoFisher Scientific) supplemented with 4× loading buffer including 20 mM DTT, heated to 70 °C for 10 min, loaded into 4% SDS-PAGE gel, run for 45 min at 140 mV, then transferred into a nitrocellulose membrane (Biorad) using a Trans-Blot Turbo transfer system (Biorad). The membrane was stained with Ponceau (Sigma) to validate transfer for 10 min in gentle agitation then destained for 1 h with MQ water. The membrane was blocked with Licor blocking buffer (LIC927-70001) for 1 h, washed three times for 5 min with TBS-T, incubated with primary antibody BTK (D3H5) rabbit mAb (CST; 8547 S) overnight (16 h) at 4 °C, washed three times for 5 min with TBS-T, and incubated with primary antibody against β-actin (CST; 3700) for 1 h at 25 °C. Membrane was washed three times for 5 min with TBS-T, incubated with fluorescent secondary antibodies anti-mouse IgG Alexa Fluor 647 (CST: 4410S) and anti-rabbit-IgG IRDye 800(LICOR: 926-32211) for 1 h, then washed three times for 5 min with TBS-T, dried, and immediately imaged and analyzed using Licor Odyssey CLx. Prism (GraphPad) software was used to calculate degradation levels. We used second-order polynomial fits to estimate DC50 and Dmax values.
Supplementary Figure 3: BTK degradation time dependency.
Ramos (PI3I, RC-1, I R-1, R C-2, I R-2, NC-1) or Mino ( RC-3) cells were treated with 100 nM of PROTAC or DMSO for indicated times, subsequently harvested for BTK levels measurement via western blot.
(1 picture or pasted object on this page, not shown here)

Chain of BTK (Q06187 whole entry): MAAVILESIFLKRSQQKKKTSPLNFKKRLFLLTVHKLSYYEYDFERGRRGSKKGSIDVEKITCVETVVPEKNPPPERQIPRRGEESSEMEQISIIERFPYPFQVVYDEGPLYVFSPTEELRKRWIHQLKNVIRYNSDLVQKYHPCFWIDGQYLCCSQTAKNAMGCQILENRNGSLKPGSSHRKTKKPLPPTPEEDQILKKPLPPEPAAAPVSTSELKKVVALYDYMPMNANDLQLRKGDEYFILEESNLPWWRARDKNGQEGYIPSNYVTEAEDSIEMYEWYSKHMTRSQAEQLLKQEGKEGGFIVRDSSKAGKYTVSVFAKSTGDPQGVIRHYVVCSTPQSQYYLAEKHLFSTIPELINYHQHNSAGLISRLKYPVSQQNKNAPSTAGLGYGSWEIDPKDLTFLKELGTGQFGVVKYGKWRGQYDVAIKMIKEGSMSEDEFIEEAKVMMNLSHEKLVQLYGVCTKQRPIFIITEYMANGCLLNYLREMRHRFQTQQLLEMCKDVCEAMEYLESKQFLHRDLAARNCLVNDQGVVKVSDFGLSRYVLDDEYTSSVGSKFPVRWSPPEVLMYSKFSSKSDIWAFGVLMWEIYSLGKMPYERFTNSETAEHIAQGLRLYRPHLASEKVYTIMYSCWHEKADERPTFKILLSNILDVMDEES

| Compound | time to degrade BTK / reach maximum degradation |
| --- | --- |
| N#CC(=CCCCCOCCOCCOCCOCCOc1cccc2c1C(=O)N(C1CCC(=O)NC1=O)C2=O)C(=O)N1CCCC(n2nc(-c3ccc(Oc4ccccc4)cc3)c3c(N)ncnc32)C1 (stereo not shown) [RC-2] | 6 to 24 h |
| Nc1ncnc2c1c(-c1ccc(Oc3ccccc3)cc1)nn2C1CCCN(C(=O)C=CCOCCOCCOCCOCCOCCOc2cccc3c2C(=O)N(C2CCC(=O)NC2=O)C3=O)C1 (stereo not shown) [IR-1] | 2 to 4 h |
| Nc1ncnc2c1c(-c1ccc(Oc3ccccc3)cc1)nn2C1CCCN(C(=O)C=CCCCCOCCOCCOCCOCCOc2cccc3c2C(=O)N(C2CCC(=O)NC2=O)C3=O)C1 (stereo not shown) [IR-2] | 2 to 4 h |
| Nc1ncnc2c1c(-c1ccc(Oc3ccccc3)cc1)nn2C1CCCN(C(=O)CCCCCCOCCOCCOCCOCCOc2cccc3c2C(=O)N(C2CCC(=O)NC2=O)C3=O)C1 (stereo not shown) [NC-1] | 2 to 4 h |
| CC(C)(C=C(C#N)C(=O)N1CCCC(n2nc(-c3ccc(Oc4ccccc4)cc3)c3c(N)ncnc32)C1)CCCOCCOCCOCCOCCOc1cccc2c1C(=O)N(C1CCC(=O)NC1=O)C2=O (stereo not shown) [RC-3] | 2 to 4 h |

system: Ramos cells; assay: Metabolomic quantification of PROTAC cellular concentration; assay type: in vitro ADME, human; settings: 100 nM compound, 2 hours
Description: Raw data were analyzed using the MaxQuant software suite 1.6.0.16
(www.maxquant.org) with the Andromeda search engine2. The higher-energy collisional dissociation (HCD) MS/MS spe ctra were searched against an in silico tryptic digest of Homo sapiens proteins from the UniProt/Swiss-Prot sequence databas e (v. July 2019), including common contaminant proteins. All MS/MS spectra were searched with the following MaxQuant parameters: acetyl (protein N -terminus) and methionine oxidation as variable modifications; cysteine carbamidomethylation was set as fixed modification for all samples, exc ept for the SDT samples in which case carbamidomethylation was set as variable modification; max 2 missed cleavages; and precursors were initially matched to 4. 5 ppm tolerance and 20 ppm for fragment spectra. Peptide spectrum matches and proteins were automatically filtered to a 1% false discovery rate based on Andromeda score, pep tide length, and individual peptide mass errors. Processing was conducted without a match between runs.
Proteins were identified and quantified based on at least two unique peptides and based on the label -free quantification (LFQ) 3 values reported by Ma xQu ant. Every data set contained three sets of four replicates (one set for DMSO treated samples, one set for 50 nM and one set for 100 nM). Proteins were excluded from analysis if within all three sets, there were less than three samples with directly detect ed and quantified protein. After this filtering step, missing values were replaced from a normal distribution.
Sample preparation: 106 Ramos cells were treated in three replicates with 100 nM compound for 2 hours. Cells were then washed twice by centrifuge at 200 rcf, 4°C for 5 minutes, removing the supernatant and washed with ice cold PBS. Samples were then centrifuged at 200 rcf, 4°C for 5 minutes, then supernatant was removed and samples were frozen at -80°C. Samples were dispersed in 100 µl of PBS. From each sample, 20 µ l were mixed with 20 µl of 10% SDS in 50 mM ammonium bicarbonate, heated to 96 ° C for 5 minutes, and the protein concentration was measured by BCA ass ay. Another 75 µ l were mixed with 0.5 mL of 50% acetonitrile:water, sonicated 3 times 10 second s on ice, centrifuged for 10 minutes at 15000 rpm at 4°C, and the supernatant was transferred to a new tube and lyophilized.
The residue was dissolved in 25% acetonitrile in water in a volume calculated from the BCA assay to obtain a con centration equivalent to 1.09 µg / µl protein. The samples were centrifuged at 21,000 g for 5 min utes to remove insoluble material. Standard curves from 0.1-100 ng/mL for each compound were used for quantitation.
The LC–MS/MS instrument consi sted of an Acquit y I-class UPLC system (Waters) and Xevo TQ-XS triple quadrupole mass spectrometer (Waters) equipped with an electrospray ion source. Chromatographic separation was done on UPLC BEH C18 column (50mm × 2.1mm, 1.7-µm, Waters) using 50-100% gradient of 95%-aqueous acetonitrile with 0.1% formic acid in aqueous 0.1% formic acid during 2.5 minut e s, with a flow rate of 0. 3 mL min−1 and column temperature 30°C. Samples kept at 10°C were automatically injected in a volume of 3µl.
MS parameters (positive ion mode): capillary voltage - 2. 0kV, source temperature - […]
Targeting BTK in CLL cells
After signing an informed consent form approved by the Tel Aviv Medical Center IRB according to the Helsinki Accords, blood samples were collected from pat ients fulfilling the standard criteria for CLL. Peripheral blood mononuclear cells (PBMC) were isolated by Ficoll (Uppsala, Sweden) density-gradient centrifugation. Viable frozen cells were kept in FCS (Biological Industries, Beit-Haemek, Israel) containing 10% DMSO (Merck, Darmstadt, Germany) and stored in liquid nitrogen. Before use, frozen cells were thawed and cultured at 37°C, 5% CO 2, in RPMI medium supplemented with 10% FCS, penicillin, streptomycin, and L-glutamine (all from Biological Industries, Be it-Haemek, Israel.) […]

| Compound | Effective cellular concentration |
| --- | --- |
| N#CC(=CCCCCOCCOCCOCCOCCOc1cccc2c1C(=O)N(C1CCC(=O)NC1=O)C2=O)C(=O)N1CCCC(n2nc(-c3ccc(Oc4ccccc4)cc3)c3c(N)ncnc32)C1 (stereo not shown) [RC-2] | 0.93 ± 0.06 pg compound / µg total protein |
| Nc1ncnc2c1c(-c1ccc(Oc3ccccc3)cc1)nn2C1CCCN(C(=O)C=CCCCCOCCOCCOCCOCCOc2cccc3c2C(=O)N(C2CCC(=O)NC2=O)C3=O)C1 (stereo not shown) [IR-2] | 4.1 ± 0.7 pg compound / µg total protein |
| Nc1ncnc2c1c(-c1ccc(Oc3ccccc3)cc1)nn2C1CCCN(C(=O)CCCCCCOCCOCCOCCOCCOc2cccc3c2C(=O)N(C2CCC(=O)NC2=O)C3=O)C1 (stereo not shown) [NC-1] | 8.6 ± 2.6 pg compound / µg total protein |
| CC(C)(C=C(C#N)C(=O)N1CCCC(n2nc(-c3ccc(Oc4ccccc4)cc3)c3c(N)ncnc32)C1)CCCOCCOCCOCCOCCOc1cccc2c1C(=O)N(C1CCC(=O)NC1=O)C2=O (stereo not shown) [RC-3] | 10.7 ± 3.1 pg compound / µg total protein |

same assay, conditions: 100 nM, 2 hours

| Compound | effective cellular concentration relative to IR-2 | effective cellular concentration relative to RC-2 |
| --- | --- | --- |
| Nc1ncnc2c1c(-c1ccc(Oc3ccccc3)cc1)nn2C1CCCN(C(=O)CCCCCCOCCOCCOCCOCCOc2cccc3c2C(=O)N(C2CCC(=O)NC2=O)C3=O)C1 (stereo not shown) [NC-1] | ~2 times | ~10 times |
| CC(C)(C=C(C#N)C(=O)N1CCCC(n2nc(-c3ccc(Oc4ccccc4)cc3)c3c(N)ncnc32)C1)CCCOCCOCCOCCOCCOc1cccc2c1C(=O)N(C1CCC(=O)NC1=O)C2=O (stereo not shown) [RC-3] | ~2 times | ~10 times |
